In ChEMBL document CHEMBL4396870, “Pharmacological Chaperones for the Treatment of α-Mannosidosis” (J Med Chem, 2019):
Calls of active or inactive are those of the source. No cut-off for these calls is given here.

Key:
[1] = target: Alpha-galactosidase (Coffea arabica) (UniProt Q42656); assay: Inhibition of green coffee alpha-galactosidase assessed as residual hydrolytic activity up to 2 mM after 10 to 30 mins by spectrophotometric analysis
Aspergillus niger = assay: Inhibition of Aspergillus niger amyloglucosidase assessed as residual hydrolytic activity up to 2 mM after 10 to 30 mins by spectrophotometric analysis
Saccharomyces cerevisiae [2] = assay: Inhibition of yeast isomaltase assessed as residual hydrolytic activity up to 2 mM after 10 to 30 mins by spectrophotometric analysis
Saccharomyces cerevisiae [3] = assay: Inhibition of yeast alpha-glucosidase assessed as residual hydrolytic activity up to 2 mM after 10 to 30 mins by spectrophotometric analysis
[4] = target: Beta-galactosidase (Escherichia coli) (UniProt Q8VNN2); assay: Inhibition of Escherichia coli beta-galactosidase assessed as residual hydrolytic activity up to 2 mM after 10 to 30 mins by spectrophotometric analysis
Sequence of Beta-galactosidase (Escherichia coli) (Q8VNN2 whole entry, looked up): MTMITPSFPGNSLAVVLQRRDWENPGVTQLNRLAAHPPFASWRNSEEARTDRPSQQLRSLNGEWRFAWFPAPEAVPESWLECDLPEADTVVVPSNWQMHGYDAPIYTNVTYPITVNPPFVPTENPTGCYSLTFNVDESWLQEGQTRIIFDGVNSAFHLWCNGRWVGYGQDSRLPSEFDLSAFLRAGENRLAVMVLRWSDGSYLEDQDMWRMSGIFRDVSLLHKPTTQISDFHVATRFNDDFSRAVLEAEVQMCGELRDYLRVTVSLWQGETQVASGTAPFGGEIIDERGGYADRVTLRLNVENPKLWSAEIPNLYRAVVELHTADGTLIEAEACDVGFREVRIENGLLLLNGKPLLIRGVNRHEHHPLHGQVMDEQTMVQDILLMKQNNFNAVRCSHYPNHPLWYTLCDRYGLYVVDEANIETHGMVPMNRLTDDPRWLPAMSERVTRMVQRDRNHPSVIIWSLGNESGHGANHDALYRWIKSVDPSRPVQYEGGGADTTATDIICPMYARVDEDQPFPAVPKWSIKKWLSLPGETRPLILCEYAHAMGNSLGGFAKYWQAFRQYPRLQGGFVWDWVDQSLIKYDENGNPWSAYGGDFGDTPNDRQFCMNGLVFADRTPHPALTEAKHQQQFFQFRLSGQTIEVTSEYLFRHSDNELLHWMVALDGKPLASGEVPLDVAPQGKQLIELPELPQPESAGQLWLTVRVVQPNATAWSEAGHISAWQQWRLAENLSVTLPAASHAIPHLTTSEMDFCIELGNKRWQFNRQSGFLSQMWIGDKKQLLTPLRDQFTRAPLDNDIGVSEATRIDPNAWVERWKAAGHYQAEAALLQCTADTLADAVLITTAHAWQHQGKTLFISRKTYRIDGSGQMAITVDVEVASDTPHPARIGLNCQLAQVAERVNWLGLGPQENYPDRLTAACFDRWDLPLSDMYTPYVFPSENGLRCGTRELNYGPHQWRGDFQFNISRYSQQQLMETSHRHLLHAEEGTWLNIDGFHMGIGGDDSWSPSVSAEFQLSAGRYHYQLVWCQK

Helix pomatia = assay: Inhibition of Helix pomatia beta-mannosidase assessed as residual hydrolytic activity up to 2 mM after 10 to 30 mins by spectrophotometric analysis
[5] = Inhibition of bovine liver beta-glucosidase assessed as residual hydrolytic activity after 10 to 30 mins by spectrophotometric analysis; design: species or system Bos taurus
Alpha-mannosidase = target: T1, Alpha-mannosidase (Canavalia ensiformis, UniProt C0HJB3); assay: Inhibition of jack bean Lysosomal alpha-mannosidase assessed as residual hydrolytic activity after 10 to 30 mins by spectrophotometric analysis
T1 sequence (C0HJB3 whole entry): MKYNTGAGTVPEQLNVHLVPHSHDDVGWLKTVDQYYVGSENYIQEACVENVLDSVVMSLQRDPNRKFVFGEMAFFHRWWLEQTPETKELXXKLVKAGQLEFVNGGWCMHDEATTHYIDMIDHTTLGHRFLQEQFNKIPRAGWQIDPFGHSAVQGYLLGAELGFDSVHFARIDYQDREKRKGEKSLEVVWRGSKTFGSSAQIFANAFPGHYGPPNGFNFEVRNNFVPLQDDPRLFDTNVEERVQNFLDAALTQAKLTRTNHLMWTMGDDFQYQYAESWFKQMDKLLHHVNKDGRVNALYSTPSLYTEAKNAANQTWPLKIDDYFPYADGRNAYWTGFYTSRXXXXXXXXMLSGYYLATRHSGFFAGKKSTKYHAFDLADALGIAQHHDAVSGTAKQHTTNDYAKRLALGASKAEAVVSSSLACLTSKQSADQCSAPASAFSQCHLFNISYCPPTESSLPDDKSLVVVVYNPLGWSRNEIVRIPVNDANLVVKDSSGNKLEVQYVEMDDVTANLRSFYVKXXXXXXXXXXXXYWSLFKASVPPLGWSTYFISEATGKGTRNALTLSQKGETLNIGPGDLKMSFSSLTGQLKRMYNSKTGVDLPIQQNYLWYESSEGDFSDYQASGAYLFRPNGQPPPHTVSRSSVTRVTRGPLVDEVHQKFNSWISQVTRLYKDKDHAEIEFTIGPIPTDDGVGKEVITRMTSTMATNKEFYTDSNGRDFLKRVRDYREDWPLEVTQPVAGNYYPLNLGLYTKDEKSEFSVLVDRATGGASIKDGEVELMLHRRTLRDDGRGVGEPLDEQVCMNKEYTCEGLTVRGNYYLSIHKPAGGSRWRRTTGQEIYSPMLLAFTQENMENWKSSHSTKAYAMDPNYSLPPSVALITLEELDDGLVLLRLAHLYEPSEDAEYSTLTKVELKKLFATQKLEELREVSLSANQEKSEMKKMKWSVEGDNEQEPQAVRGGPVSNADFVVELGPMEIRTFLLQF

[6] = Inhibition of almond beta-glucosidase assessed as residual hydrolytic activity after 10 to 30 mins by spectrophotometric analysis; design: species or system Prunus dulcis
[7] = Inhibition of Helix pomatia beta-mannosidase assessed as residual hydrolytic activity after 10 to 30 mins by spectrophotometric analysis; conditions: read-out: Ki

Sequence of Alpha-galactosidase (Coffea arabica) (Q42656 16-378 limits assumed): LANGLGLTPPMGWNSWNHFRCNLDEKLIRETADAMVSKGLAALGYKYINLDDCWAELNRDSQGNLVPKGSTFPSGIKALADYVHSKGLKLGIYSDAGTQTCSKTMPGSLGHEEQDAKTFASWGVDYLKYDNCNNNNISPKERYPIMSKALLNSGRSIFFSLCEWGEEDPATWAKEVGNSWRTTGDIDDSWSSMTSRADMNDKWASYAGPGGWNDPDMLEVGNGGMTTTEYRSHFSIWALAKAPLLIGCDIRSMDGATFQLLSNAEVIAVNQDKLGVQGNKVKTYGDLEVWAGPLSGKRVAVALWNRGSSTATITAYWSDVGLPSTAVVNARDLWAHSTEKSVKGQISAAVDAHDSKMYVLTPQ

Row | SMILES | inhibition [1] | inhibition (Aspergillus niger) | inhibition (Saccharomyces cerevisiae [2]) | inhibition (Saccharomyces cerevisiae [3]) | inhibition [4] | Activity (Helix pomatia) | Ki [5] [µM] | Ki (Alpha-mannosidase) [µM] | Ki [6] [µM] | Ki [7] [µM]
1 | O=C1OC[C@@H]2[C@@H](O)[C@H](O)[C@H](O)[C@@H](NCCCCCCn3cc(COC[C@H]4O[C@@H]5O[C@H]6[C@H](O)[C@@H](OCc7cn(CCCCCCN[C@@H]8[C@@H](O)[C@@H](O)[C@H](O)[C@H]9COC(=O)N98)nn7)[C@@H](O[C@H]7[C@H](O)[C@@H](OCc8cn(CCCCCCN[C@@H]9[C@@H](O)[C@@H](O)[C@H](O)[C@H]%10COC(=O)N%109)nn8)[C@@H](O[C@H]8[C@H](O)[C@@H](OCc9cn(CCCCCCN[C@@H]%10[C@@H](O)[C@@H](O)[C@H](O)[C@H]%11COC(=O)N%11%10)nn9)[C@@H](O[C@H]9[C@H](O)[C@@H](OCc%10cn(CCCCCCN[C@@H]%11[C@@H](O)[C@@H](O)[C@H](O)[C@H]%12COC(=O)N%12%11)nn%10)[C@@H](O[C@H]%10[C@H](O)[C@@H](OCc%11cn(CCCCCCN[C@@H]%12[C@@H](O)[C@@H](O)[C@H](O)[C@H]%13COC(=O)N%13%12)nn%11)[C@@H](O[C@H]%11[C@H](O)[C@@H](OCc%12cn(CCCCCCN[C@@H]%13[C@@H](O)[C@@H](O)[C@H](O)[C@H]%14COC(=O)N%14%13)nn%12)[C@@H](O[C@H]4[C@H](O)[C@H]5OCc4cn(CCCCCCN[C@@H]5[C@@H](O)[C@@H](O)[C@H](O)[C@H]%12COC(=O)N%125)nn4)O[C@@H]%11COCc4cn(CCCCCCN[C@@H]5[C@@H](O)[C@@H](O)[C@H](O)[C@H]%11COC(=O)N%115)nn4)O[C@@H]%10COCc4cn(CCCCCCN[C@@H]5[C@@H](O)[C@@H](O)[C@H](O)[C@H]%10COC(=O)N%105)nn4)O[C@@H]9COCc4cn(CCCCCCN[C@@H]5[C@@H](O)[C@@H](O)[C@H](O)[C@H]9COC(=O)N95)nn4)O[C@@H]8COCc4cn(CCCCCCN[C@@H]5[C@@H](O)[C@@H](O)[C@H](O)[C@H]8COC(=O)N85)nn4)O[C@@H]7COCc4cn(CCCCCCN[C@@H]5[C@@H](O)[C@@H](O)[C@H](O)[C@H]7COC(=O)N75)nn4)O[C@@H]6COCc4cn(CCCCCCN[C@@H]5[C@@H](O)[C@@H](O)[C@H](O)[C@H]6COC(=O)N65)nn4)nn3)N12 | Active | Active | Active | Active | Active | Active |  |  |  | 
2 | N[C@@H]1[C@@H](O)[C@@H](O)[C@H](O)[C@H]2COC(=O)N12 |  |  |  |  |  |  | 20 to 200 | 7 | 20 to 200 | 20 to 200
